Measured values taken from PMC11984392, “EphA2-targeted alpha-particle theranostics for enhancing PDAC treatment” (Theranostics, 2025).
Like-named read-outs stand apart in the source and are kept apart here. *1 amine or outer side, *2 acyl side, *3 side chain or, on linkers, in order; H or OH if unused. Where a SMILES comes first, the peptide text is derived from it. Bridges are numbered along the chain shown (N, C = ends). [ ]: non-standard residue; d: D form. The star is where a group is joined. TATA = O=C(CC[*:1])N1CN(C(=O)CC[*:2])CN(C(=O)CC[*:3])C1; NOTA = O=C(O)CN1CCN(CC(=O)O)CCN(CC(=O)*)CC1; Hyp = O=C(O)[C@@H]1C[C@@H](O)CN1; hArg = N=C(N)NCCCC[C@H](N)C(=O)O; PEG2 = NCCOCCOCCC(=O)O; Sar = CNCC(=O)O

Experiments:
Format in all cases: in vivo, NSG mice
Ex vivo biodistribution = details: both sexes, NSG, mouse, total radioactivity, 60 min p.i., mean ± SEM (n = 4 or 5)
Experimental: (§1) Animal studies were performed under Johns Hopkins University Animal Care and Use Committee (ACUC)-approved protocol (Principal investigator: Sridhar Nimmagadda, Ph.D. and Protocol number M021M175). Male and Female NSG mice (5-6 weeks old) were purchased from JHU immunocompromised core and used to establish xenografts by administering cells subcutaneously (top right flank, unless otherwise noted) to form various tumor models within 3-4 weeks. Following cell numbers were used: Panc1, AsPC1, BxPC3 (1 M), Hs766T and SU8686 (2 M), CFPAC and Panc1005 (5 M). Imaging or biodistribution studies (n = 3-5) were conducted on mice with tumor volumes of 100-200 mm^3. The Panc1 orthotopic tumor model was established by surgically implanting a 3-5 mm^3 section of Panc1 tumor xenograft directly onto the pancreas. The implanted tumors were allowed to grow and were ready for imaging after 10 days of implantation.
(§2) Mice with 100-200 mm^3 tumor volume were used for ex vivo biodistribution studies. For radiotracer pharmacokinetics and dosimetry studies, mice with Panc1 tumor xenograft received ~80 µCi (2.96 MBq) [^68Ga]AJ201 and were sacrificed at pre-determined time points (5, 30, 60, 90 and 120 min). All other mice were injected with ~50 µCi (1.85 MBq; 0.2 to 0.5 nmol) Ga-68 labeled radiotracer and were sacrificed at 60 min. The selected tissues were collected, weighed, counted, and their %ID/g values calculated for biodistribution analysis. For pharmacokinetics and dosimetry studies, selected tissues included blood, muscle, tumor, thymus, heart, lung, liver, pancreas, stomach, small intestine, large intestine, spleen, adrenals, kidney, bladder, femur, brain and tumor xenografts. For other studies, selected tissues were blood, muscle, tumor, heart, lung, liver, pancreas, small intestine, spleen, kidney.

BxPC3 tumor xenografts = assay: Ex vivo biodistribution; details: BxPC3 xenograft; 60 min p.i.; mean ± SEM (n = 4 or 5)
Experimental: as §1, §2

CFPAC tumor xenografts = assay: Ex vivo biodistribution; details: CFPAC xenograft; 60 min p.i.; mean ± SEM (n = 4 or 5)
Experimental: as §1, §2

In the case of `CC(C)C[C@@H]1NC(=O)[C@@H]2CSCCC(=O)N3CN(CN(C3)C(=O)CCSC[C@H](NC(=O)[C@H](CC(=O)O)NC(=O)[C@H](CCCCNC(=N)N)NC(=O)[C@H](C)NC(=O)CNC(=O)CN(C)C(=O)CN(C)C(=O)CN(C)C(=O)[C@H](CCCNC(=N)N)NC(=O)CNC(=O)CCOCCOCCNC(=O)CN3CCN(CC(=O)O)CCN(CC(=O)O)CC3)C(=O)N3C[C@H](O)C[C@H]3C(=O)N[C@@H](CC(C)C)C(=O)N[C@@H](C(C)C)C(=O)N[C@@H](CC(N)=O)C(=O)N3CCC[C@H]3C(=O)N[C@@H](CC(C)C)C(=O)N2)C(=O)CCSC[C@@H](C(N)=O)NC(=O)[C@H](CCCCNC(=N)N)NC(=O)[C@H](Cc2c[nH]c3ccccc23)NC(=O)[C@@H](CC(=O)O)NC(=O)[C@@H]2CCCN2C(=O)[C@H](Cc2c[nH]cn2)NC1=O` [[^68Ga]AJ201, metal not drawn] ({NOTA-PEG2}-GR[Sar][Sar][Sar]GA[hArg]DC[Hyp]LVNPLCLHP[dD]W[hArg]C-NH2; linker 10-17-24 via TATA), the tissue uptake at 1 h (Ex vivo biodistribution; pancreas, AsPC1 xenograft, read-out: Pancreas uptake) is reported as 0.65 ± 0.04 %ID/g, the tissue uptake at 1 h (Ex vivo biodistribution; pancreas, BxPC3 xenograft, read-out: Pancreas uptake) is reported as 0.25 ± 0.02 %ID/g and the tissue uptake at 1 h (Ex vivo biodistribution; pancreas, CFPAC xenograft, read-out: Pancreas uptake) is reported as 0.32 ± 0.07 %ID/g. For the same compound, the tissue uptake at 1 h (Ex vivo biodistribution; pancreas, Hs766T xenograft, read-out: Pancreas uptake) was 0.61 ± 0.22 %ID/g, the tissue uptake at 1 h (Ex vivo biodistribution; pancreas, Panc1005 xenograft, read-out: Pancreas uptake) was 0.21 ± 0.03 %ID/g and the tissue uptake at 1 h (Ex vivo biodistribution; pancreas, Su8686 xenograft, read-out: Pancreas uptake) was 0.22 ± 0.05 %ID/g. For the same compound, the tissue uptake at 1 h (Ex vivo biodistribution; small intestine, AsPC1 xenograft, read-out: Small intestine uptake) was 1.12 ± 0.08 %ID/g, the tissue uptake at 1 h (Ex vivo biodistribution; small intestine, BxPC3 xenograft, read-out: Small intestine uptake) was 0.32 ± 0.02 %ID/g and the tissue uptake at 1 h (Ex vivo biodistribution; small intestine, Hs766T xenograft, read-out: Small intestine uptake) was 0.62 ± 0.02 %ID/g. For the same compound, the tissue uptake at 1 h (Ex vivo biodistribution; small intestine, Panc1005 xenograft, read-out: Small intestine uptake) was 0.25 ± 0.03 %ID/g, the tissue uptake at 1 h (Ex vivo biodistribution; small intestine, Su8686 xenograft, read-out: Small intestine uptake) was 0.29 ± 0.05 %ID/g and the tissue uptake at 1 h (Ex vivo biodistribution; spleen, AsPC1 xenograft, read-out: Spleen uptake) was 1.61 ± 0.11 %ID/g. It also gave a tissue uptake at 1 h (Ex vivo biodistribution; spleen, BxPC3 xenograft, read-out: Spleen uptake) of 0.64 ± 0.05 %ID/g, a tissue uptake at 1 h (Ex vivo biodistribution; spleen, CFPAC xenograft, read-out: Spleen uptake) of 0.87 ± 0.15 %ID/g and a tissue uptake at 1 h (Ex vivo biodistribution; spleen, Hs766T xenograft, read-out: Spleen uptake) of 2.75 ± 0.65 %ID/g. The tissue uptake at 1 h (Ex vivo biodistribution; spleen, Panc1005 xenograft, read-out: Spleen uptake) was 0.52 ± 0.05 %ID/g, the tissue uptake at 1 h (Ex vivo biodistribution; spleen, Su8686 xenograft, read-out: Spleen uptake) was 0.6 ± 0.16 %ID/g and the tissue uptake at 1 h (Ex vivo biodistribution; tumor, 50 uCi, CFPAC xenograft, read-out: Tumor uptake) was 2.4 ± 0.2 %ID/g. For the same compound, the tissue uptake at 1 h (Ex vivo biodistribution; tumor, AsPC1 xenograft, read-out: Tumor uptake) was 4.01 ± 0.46 %ID/g, the tissue uptake at 1 h (Ex vivo biodistribution; tumor, BxPC3 xenograft, read-out: Tumor uptake) was 2.72 ± 0.37 %ID/g and the tissue uptake at 1 h (Ex vivo biodistribution; tumor, Hs766T xenograft, read-out: Tumor uptake) was 7.97 ± 2.83 %ID/g. It also gave a tissue uptake at 1 h (Ex vivo biodistribution; tumor, Panc1005 xenograft, read-out: Tumor uptake) of 5.31 ± 0.9 %ID/g, a tissue uptake at 1 h (Ex vivo biodistribution; tumor, Su8686 xenograft, read-out: Tumor uptake) of 7.66 ± 1 %ID/g and a tissue to tissue ratio at 1 h (Ex vivo biodistribution; tumor/blood, AsPC1 xenograft, read-out: Tumor/blood ratio) of 1.2 ± 0.06. It also gave a tissue to tissue ratio at 1 h (Ex vivo biodistribution; tumor/blood, BxPC3 xenograft, read-out: Tumor/blood ratio) of 4.86 ± 0.92, a tissue to tissue ratio at 1 h (Ex vivo biodistribution; tumor/blood, CFPAC xenograft, read-out: Tumor/blood ratio) of 4.53 ± 0.9 and a tissue to tissue ratio at 1 h (Ex vivo biodistribution; tumor/blood, Hs766T xenograft, read-out: Tumor/blood ratio) of 5.47 ± 0.81. For the same compound, the tissue to tissue ratio at 1 h (Ex vivo biodistribution; tumor/blood, Panc1005 xenograft, read-out: Tumor/blood ratio) was 12.9 ± 2.38, the tissue to tissue ratio at 1 h (Ex vivo biodistribution; tumor/blood, Su8686 xenograft, read-out: Tumor/blood ratio) was 14.2 ± 3.89 and the tissue to tissue ratio at 1 h (Ex vivo biodistribution; tumor/muscle, AsPC1 xenograft, read-out: Tumor/Muscle ratio) was 9.95 ± 1.49. It also gave a tissue to tissue ratio at 1 h (Ex vivo biodistribution; tumor/muscle, BxPC3 xenograft, read-out: Tumor/Muscle ratio) of 15.2 ± 2.14, a tissue to tissue ratio at 1 h (Ex vivo biodistribution; tumor/muscle, CFPAC xenograft, read-out: Tumor/Muscle ratio) of 12.1 ± 1.45 and a tissue to tissue ratio at 1 h (Ex vivo biodistribution; tumor/muscle, Hs766T xenograft, read-out: Tumor/Muscle ratio) of 17.2 ± 2.33. For the same compound, the tissue to tissue ratio at 1 h (Ex vivo biodistribution; tumor/muscle, Panc1005 xenograft, read-out: Tumor/Muscle ratio) was 50.1 ± 10.2, the tissue to tissue ratio at 1 h (Ex vivo biodistribution; tumor/muscle, Su8686 xenograft, read-out: Tumor/Muscle ratio) was 58 ± 11.5 and the tissue to tissue ratio at 1 h (Ex vivo biodistribution; tumor/pancreas, AsPC1 xenograft, read-out: Tumor/Pancreas ratio) was 6.23 ± 0.65. For the same compound, the tissue to tissue ratio at 1 h (Ex vivo biodistribution; tumor/pancreas, BxPC3 xenograft, read-out: Tumor/Pancreas ratio) was 11 ± 1.71, the tissue to tissue ratio at 1 h (Ex vivo biodistribution; tumor/pancreas, CFPAC xenograft, read-out: Tumor/Pancreas ratio) was 8.68 ± 1.24 and the tissue to tissue ratio at 1 h (Ex vivo biodistribution; tumor/pancreas, Hs766T xenograft, read-out: Tumor/Pancreas ratio) was 13.8 ± 2.3. For the same compound, the tissue to tissue ratio at 1 h (Ex vivo biodistribution; tumor/pancreas, Panc1005 xenograft, read-out: Tumor/Pancreas ratio) was 26.9 ± 5.62, the tissue to tissue ratio at 1 h (Ex vivo biodistribution; tumor/pancreas, Su8686 xenograft, read-out: Tumor/Pancreas ratio) was 39.8 ± 7.21 and the Heart uptake (BxPC3 tumor xenografts) was 0.29 ± 0.01 %ID/g. It also gave a Muscle uptake (CFPAC tumor xenografts) of 0.21 ± 0.04 %ID/g and a Small intestine uptake (CFPAC tumor xenografts) of 0.51 ± 0.10 %ID/g.
